# Reference: patent US6509371B1, “Compositions containing Bergamottin for increasing the oral bioavailability of pharmaceutical agents” (Warner-Lambert Company, priority 1997, dated 2003)
# pIC50: −log10 of the molar value.
# Experiments:
# P450 3A4 [1] = target: T1, P450 3A4 (Homo sapiens, UniProt P08684); experiment: BG-mediated inactivation of P450 3A4 in a reconstituted system, testosterone 6β-hydroxylation activity; settings: for Kinactivation (maximal rate constant of inactivation): reconstituted system
# Target sequence in this assay (P08684 with tags, fused parts or gaps): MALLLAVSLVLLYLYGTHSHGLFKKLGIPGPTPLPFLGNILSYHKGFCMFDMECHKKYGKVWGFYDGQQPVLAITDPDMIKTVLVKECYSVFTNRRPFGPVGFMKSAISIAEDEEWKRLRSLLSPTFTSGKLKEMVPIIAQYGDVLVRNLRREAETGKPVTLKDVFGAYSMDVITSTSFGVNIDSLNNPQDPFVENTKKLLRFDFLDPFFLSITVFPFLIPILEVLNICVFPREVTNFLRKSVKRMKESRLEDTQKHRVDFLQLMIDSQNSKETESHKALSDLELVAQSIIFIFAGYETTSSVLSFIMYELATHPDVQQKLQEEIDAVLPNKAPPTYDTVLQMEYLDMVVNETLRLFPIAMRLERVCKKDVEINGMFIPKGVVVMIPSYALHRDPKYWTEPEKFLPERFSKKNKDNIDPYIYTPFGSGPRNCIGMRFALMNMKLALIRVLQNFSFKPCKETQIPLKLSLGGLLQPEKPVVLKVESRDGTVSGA
# P450 2E1 = target: T2, P450 2E1 (Homo sapiens, UniProt P05181); experiment: Human liver microsomes, chlorzoxazone 6-hydroxylation; assay type: biochemical; settings: pooled human liver microsomes
# T2 construct: Pooled human liver microsomes; from tissue; host or cells: human liver microsomes, pool of 6
# Procedure: (§1) Human liver tissues were obtained from the University of Chicago Distribution Center of […] (Liver Transplant Procurement and Distribution Service, University of Minnesota, Minneapolis, Minn.), Human Biologics Inc. (Phoenix, Ariz.) and the International Institute for the Advancement of Science (Exton, Pa.). The liver microsomes were prepared by differential centrifugation. Caffeine N3-demethylation (Tassaneeyakul W., Mohammed […]., Veronese M. E., Tukey R. H., Quattrochi […]., and Miners J. O. Caffeine as a probe for human cytochromes P450: Validation using cDNA-expression,immunoinhibition, and microsomal kinetic and inhibitor techniques. Pharmacogenetics, 1992;2:173-183), coumarin 7-hydroxylation ([…]. Metabolism of coumarin by rat, gerbil, and human liver microsomes. Xenobiotica, 1992;22:357-367), tolbutamide hydroxylation (Miners J. O., Smith K. J., Robson […]., Veronese M. E., and Birkett D. J. Tolbutamide hydroxylation by human liver microsomes: Kinetic characterization and relationship to other cytochrome P-450 dependent xenobiotic oxidations. Biochem. Pharmacol., 1988;37:1137-1144), racemic bufurolol 1'-hydroxylation ([…]., Gut […]., and Meyer U. A. […] Anal. […] S. Hydroxylation of chlorzoxazone as a specific probe for human liver cytochrome P-450 IIEI. Chem. Res. […] The reactions were initiated by the additions of 1 mM NADPH and terminated in ice. […]
# P450 2C19 = target: T3, P450 2C19 (Homo sapiens, UniProt P33261); experiment: Human liver microsomes, (S)-mephenytoin 4′-hydroxylation; assay type: biochemical; settings: pooled human liver microsomes, probe (S)-mephenytoin (50 μM), read-out: P450 2C19 activity inhibited
# T3 construct: incubated with pooled human liver microsomes; from tissue; host or cells: pooled human liver microsomes
# Procedure: as §1
# P450 2C9 = target: T4, P450 2C9 (Homo sapiens, UniProt P11712); experiment: Human liver microsomes, tolbutamide hydroxylation; assay type: biochemical; settings: pooled human liver microsomes
# T4 construct: Pooled human liver microsomes; from tissue; host or cells: human liver microsomes, pool of 6
# Procedure: (§2) Human liver tissues were obtained from the University of Chicago Distribution Center of […] (Liver Transplant Procurement and Distribution Service, University of Minnesota, Minneapolis, Minn.), Human Biologics Inc. (Phoenix, Ariz.) and the International Institute for the Advancement of Science (Exton, Pa.). The liver microsomes were prepared by differential centrifugation. […] Anal. […] S. Hydroxylation of chlorzoxazone as a specific probe for human liver cytochrome P-450 IIEI. Chem. Res. […] The reactions were initiated by the additions of 1 mM NADPH and terminated in ice. […] A. Assay of mephenytoin metabolism in human liver microsomes by high-performance liquid chromatography. […] Experimental controls consisted of the complete incubation components without the addition of BG.
# P450 2A6 = target: T5, P450 2A6 (Homo sapiens, UniProt P11509); experiment: Human liver microsomes, coumarin 7-hydroxylation; assay type: biochemical; settings: pooled microsomes, 4 μM coumarin
# T5 construct: Pooled human liver microsomes; from tissue; host or cells: human liver microsomes, pool of 6
# T5 sequence (P11509 1-494): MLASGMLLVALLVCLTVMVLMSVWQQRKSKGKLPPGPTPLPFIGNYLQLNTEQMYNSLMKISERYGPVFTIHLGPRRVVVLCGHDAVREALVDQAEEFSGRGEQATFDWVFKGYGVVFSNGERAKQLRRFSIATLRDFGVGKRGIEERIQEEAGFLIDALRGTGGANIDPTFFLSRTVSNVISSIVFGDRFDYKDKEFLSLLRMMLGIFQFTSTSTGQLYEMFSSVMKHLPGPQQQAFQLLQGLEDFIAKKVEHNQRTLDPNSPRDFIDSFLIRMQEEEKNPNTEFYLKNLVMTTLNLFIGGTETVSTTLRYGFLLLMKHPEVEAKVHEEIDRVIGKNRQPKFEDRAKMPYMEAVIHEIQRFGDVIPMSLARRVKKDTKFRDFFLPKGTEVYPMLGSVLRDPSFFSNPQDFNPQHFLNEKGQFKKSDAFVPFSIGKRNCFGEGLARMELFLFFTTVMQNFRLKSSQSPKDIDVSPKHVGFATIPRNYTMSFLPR
# Procedure: as §1
# P450 1A2 = target: T6, P450 1A2 (Homo sapiens, UniProt P05177); experiment: Human liver microsomes, caffeine N3-demethylation; assay type: biochemical; settings: pooled microsomes, 100 μM caffeine
# T6 sequence (P05177 1-516): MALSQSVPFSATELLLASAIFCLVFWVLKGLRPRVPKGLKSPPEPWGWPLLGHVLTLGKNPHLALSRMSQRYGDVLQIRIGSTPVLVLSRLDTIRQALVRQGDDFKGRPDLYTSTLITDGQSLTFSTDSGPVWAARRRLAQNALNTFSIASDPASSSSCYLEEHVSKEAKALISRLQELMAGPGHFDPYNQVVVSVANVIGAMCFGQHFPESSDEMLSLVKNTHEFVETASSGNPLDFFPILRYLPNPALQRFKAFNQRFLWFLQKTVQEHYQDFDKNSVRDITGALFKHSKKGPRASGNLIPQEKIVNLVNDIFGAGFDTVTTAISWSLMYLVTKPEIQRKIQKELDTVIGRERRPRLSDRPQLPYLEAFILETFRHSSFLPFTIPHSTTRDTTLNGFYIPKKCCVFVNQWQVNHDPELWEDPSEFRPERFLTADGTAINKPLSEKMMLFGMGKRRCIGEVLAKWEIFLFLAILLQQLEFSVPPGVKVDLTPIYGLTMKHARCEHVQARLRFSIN
# Procedure: as §1
# P450 3A4 [2] = target: T1, P450 3A4; experiment: P450 content by reduced-CO difference spectrum after incubation in the reconstituted system; assay type: biochemical; parameters: A full-length P450 3A4 cDNA (except for the deletion of codons 3-12 at the 5′-end); made in house; host or cells: E. coli MV1304 (pCW vector); settings: 50 μM BG, 15 minutes; for P450: 37° C.
# Procedure: Reactions with various concentrations of BG were initiated by addition of 1 mM NADPH, and terminated on ice. The incubations were performed at 37° C. for the time periods indicated. […] The spectra were recorded between 330 to 700 nm against the diluting buffer as reference on a […] spectrophotometer in the split beam mode.
# Target sequence in this assay (P08684 with tags, fused parts or gaps): as the sequence (P08684 with tags, fused parts or gaps) above
# P450 3A4 [3] = target: T1, P450 3A4; experiment: Human liver microsomes, testosterone 6β-hydroxylation; assay type: biochemical; settings: pooled human liver microsomes
# Procedure: as §2
# Target sequence in this assay (P08684 whole entry): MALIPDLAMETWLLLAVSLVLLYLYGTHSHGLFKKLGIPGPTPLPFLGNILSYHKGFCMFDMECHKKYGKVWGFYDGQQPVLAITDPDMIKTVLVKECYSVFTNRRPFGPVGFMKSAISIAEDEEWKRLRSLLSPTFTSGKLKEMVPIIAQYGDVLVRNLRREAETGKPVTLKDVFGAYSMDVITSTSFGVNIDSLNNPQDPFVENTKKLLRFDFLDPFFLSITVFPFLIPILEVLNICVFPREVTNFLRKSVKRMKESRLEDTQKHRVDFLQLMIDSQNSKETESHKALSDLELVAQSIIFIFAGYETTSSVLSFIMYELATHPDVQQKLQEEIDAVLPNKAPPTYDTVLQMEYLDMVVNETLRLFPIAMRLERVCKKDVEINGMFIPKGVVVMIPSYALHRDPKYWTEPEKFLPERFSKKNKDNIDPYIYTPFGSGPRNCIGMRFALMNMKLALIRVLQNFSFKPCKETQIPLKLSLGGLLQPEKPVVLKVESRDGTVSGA
# P450 3A4 [4] = target: T1, P450 3A4; experiment: HPLC analysis of BG-inactivated P450 3A4 on a Poros column; assay type: biochemical; parameters: A full-length P450 3A4 cDNA (except for the deletion of codons 3-12 at the 5′-end); made in house; host or cells: E. coli MV1304 (pCW vector)
# Text: S., Hopkins N. E., Alworth D. A., and Hollenberg P. F. […] The eluate was monitored by UV detection at […], 310, and 405 nm simultaneously.
# Target sequence in this assay (P08684 with tags, fused parts or gaps): as the sequence (P08684 with tags, fused parts or gaps) above
# P450 2D6 = target: T7, P450 2D6 (Homo sapiens, UniProt P10635); experiment: Human liver microsomes, racemic bufurolol 1′-hydroxylation; assay type: biochemical; settings: pooled human liver microsomes
# T7 construct: Pooled human liver microsomes; from tissue; host or cells: human liver microsomes, pool of 6
# Procedure: as §1
# P450 3A4 [5] = target: T1, P450 3A4; settings: in vivo; cited from earlier work
# Target sequence in this assay (P08684 whole entry): as the sequence (P08684 whole entry) above
# [6] = oral; cited from earlier work
# P450 3A4 [7] = target: T1, P450 3A4; settings: other potent inactivators of P450 3A4, literature; cited from earlier work
# Target sequence in this assay (P08684 whole entry): as above
# [8] = human, pH 7.5, probe testosterone (200 μM), 6β-hydroxylation
# T3 sequence (P33261 whole entry): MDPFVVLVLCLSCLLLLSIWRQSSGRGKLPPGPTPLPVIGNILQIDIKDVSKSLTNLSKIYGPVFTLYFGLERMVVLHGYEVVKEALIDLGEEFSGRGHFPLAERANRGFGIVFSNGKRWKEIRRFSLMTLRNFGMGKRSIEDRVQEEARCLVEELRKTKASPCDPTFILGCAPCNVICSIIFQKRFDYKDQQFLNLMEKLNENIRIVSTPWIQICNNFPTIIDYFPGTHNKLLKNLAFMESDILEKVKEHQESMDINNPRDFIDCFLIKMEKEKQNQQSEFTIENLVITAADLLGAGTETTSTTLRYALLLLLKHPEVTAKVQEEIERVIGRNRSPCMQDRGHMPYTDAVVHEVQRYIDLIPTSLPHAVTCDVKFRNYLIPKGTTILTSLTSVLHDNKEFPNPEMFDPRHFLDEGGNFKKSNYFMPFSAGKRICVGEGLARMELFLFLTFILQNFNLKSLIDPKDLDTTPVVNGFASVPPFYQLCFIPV
# T2 sequence (P05181 whole entry): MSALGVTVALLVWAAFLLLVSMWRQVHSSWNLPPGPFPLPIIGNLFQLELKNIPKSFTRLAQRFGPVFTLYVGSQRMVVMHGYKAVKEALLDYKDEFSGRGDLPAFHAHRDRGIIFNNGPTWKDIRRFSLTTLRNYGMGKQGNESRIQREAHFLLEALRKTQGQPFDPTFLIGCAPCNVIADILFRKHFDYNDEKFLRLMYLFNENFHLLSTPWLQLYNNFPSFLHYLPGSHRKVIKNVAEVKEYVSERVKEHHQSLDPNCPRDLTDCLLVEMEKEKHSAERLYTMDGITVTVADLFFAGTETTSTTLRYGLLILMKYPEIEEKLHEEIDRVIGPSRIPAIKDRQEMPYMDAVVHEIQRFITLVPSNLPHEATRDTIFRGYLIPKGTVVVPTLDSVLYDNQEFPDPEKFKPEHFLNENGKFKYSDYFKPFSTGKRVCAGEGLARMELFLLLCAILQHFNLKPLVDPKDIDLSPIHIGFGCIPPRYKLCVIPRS
# T4 sequence (P11712 whole entry): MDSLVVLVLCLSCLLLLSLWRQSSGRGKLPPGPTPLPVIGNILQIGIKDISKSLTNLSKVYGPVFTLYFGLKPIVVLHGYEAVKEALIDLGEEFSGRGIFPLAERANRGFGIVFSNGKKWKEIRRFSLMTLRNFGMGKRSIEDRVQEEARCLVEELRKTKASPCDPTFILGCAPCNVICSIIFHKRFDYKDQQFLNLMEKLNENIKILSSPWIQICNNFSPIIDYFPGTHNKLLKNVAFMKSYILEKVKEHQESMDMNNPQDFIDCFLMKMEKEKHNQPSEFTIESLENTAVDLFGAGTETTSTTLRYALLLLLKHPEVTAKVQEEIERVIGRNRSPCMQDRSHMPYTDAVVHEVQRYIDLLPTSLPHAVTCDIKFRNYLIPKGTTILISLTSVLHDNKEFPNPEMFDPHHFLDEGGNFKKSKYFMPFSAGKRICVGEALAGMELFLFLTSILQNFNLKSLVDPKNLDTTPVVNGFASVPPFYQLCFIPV
# T7 sequence (P10635 whole entry): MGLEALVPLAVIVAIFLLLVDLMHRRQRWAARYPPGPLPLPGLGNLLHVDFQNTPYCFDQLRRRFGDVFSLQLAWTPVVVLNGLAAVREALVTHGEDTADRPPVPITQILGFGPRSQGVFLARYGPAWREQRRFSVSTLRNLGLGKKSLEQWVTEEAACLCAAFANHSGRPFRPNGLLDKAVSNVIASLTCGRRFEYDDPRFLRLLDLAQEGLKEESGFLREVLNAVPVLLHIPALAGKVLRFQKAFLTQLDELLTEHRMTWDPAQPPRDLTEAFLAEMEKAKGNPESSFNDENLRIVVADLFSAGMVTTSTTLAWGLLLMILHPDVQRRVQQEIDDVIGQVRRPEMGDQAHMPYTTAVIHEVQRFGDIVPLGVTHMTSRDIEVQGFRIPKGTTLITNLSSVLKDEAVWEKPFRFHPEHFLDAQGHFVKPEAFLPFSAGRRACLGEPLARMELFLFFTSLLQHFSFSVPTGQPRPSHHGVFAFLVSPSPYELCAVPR
smiles,measurement,setting,value
"CC(=CCOc1c2ccoc2cc2oc(=O)ccc12)CCC(O)C(C)(C)O (stereo not drawn) [6′,7′-dihydroxybergamottin]",Kinactivation (maximal rate constant of inactivation),P450 3A4 [1],0.16 min⁻¹
"CC(C)=CCC/C(C)=C/COc1c2ccoc2cc2oc(=O)ccc12 [BG, (E)-4-[(3,7-dimethyl-2,6-octadienyl)oxy]-7H-furo[3,2-g][1]benzopyran-7-one]",pIC50,P450 2E1,~5.41
same,inhibition at 2 μM,P450 2C19; 2 μM BG,~71%
same,inhibition at 20 μM,P450 2C19; 20 μM BG,~100%
same,pIC50,P450 2C9,~5.62
same,P450 2A6 activity in human liver microsomes,P450 2A6,inhibited
same,P450 1A2 activity in human liver microsomes,P450 1A2,inhibited
same,decrease of P450 content (reduced-CO spectrum),P450 3A4 [2]; with NADPH,approximately 40%
same,P450,P450 3A4 [2]; BG+/NADPH+,0.27 nmol/mL
same,P450,P450 3A4 [2]; BG+/NADPH−,0.47 nmol/mL
same,pIC50,P450 3A4 [3],~5.34
same,decrease of the amount of apoP450 3A4,"P450 3A4 [4]; 50 μM BG, reverse phase HPLC, vs −NADPH control",about 50%
same,heme recovered,P450 3A4 [4]; BG inactivated P450 3A4 sample,Approximately 90%
same,reductase and cytochrome b5 protein recovered from the column,P450 3A4 [4]; compared with −NADPH controls,~100%
same,pIC50,P450 2D6,~5.52
same,inactivation of testosterone 6β-hydroxylation activity,P450 3A4 [1]; 2 μM BG with α-naphathoflavone 6 to 50 μM,about 55%
same,loss of testosterone 6β-hydroxylation activity,"P450 3A4 [1]; 50 μM BG, with NADPH, 37° C., 15 minutes",90%
same,Testosterone 6β-hydroxylation,"P450 3A4 [1]; BG+/NADPH+, 50 μM BG, 37° C., 15 minutes",0.8 nmol/min/nmol
same,Testosterone 6β-hydroxylation,"P450 3A4 [1]; BG+/NADPH−, 50 μM BG, 37° C., 15 minutes",2.9 nmol/min/nmol
same,KI (inactivation),P450 3A4 [1]; [8],7.7 µM
same,inhibition at 50 μM,P450 3A4 [1]; [8],~60%
same,inhibition at […],P450 3A4 [1]; [8],~55%
same,kinact,P450 3A4 [1]; read-out: Kinactivation (maximal rate constant of inactivation),0.005 s⁻¹
same,Kinactivation (maximal rate constant of inactivation),P450 3A4 [1],0.3 min⁻¹
CO[C@H]1/C=C/O[C@@]2(C)Oc3c(C)c(O)c4c(c3C2=O)C2=NC3(CCN(CC(C)C)CC3)NC2=C(NC(=O)/C(C)=C\C=C\[C@H](C)[C@H](O)[C@@H](C)[C@@H](O)[C@@H](C)[C@H](OC(C)=O)[C@@H]1C)C4=O [Rifabutin],Fraction Metabolized,P450 3A4 [5],>90%
same,Oral Bioavailability,[6],20-12%
"CO[C@H]1C[C@@H]2CC[C@@H](C)[C@@](O)(O2)C(=O)C(=O)N2CCCC[C@H]2C(=O)O[C@H]([C@H](C)C[C@@H]2CC[C@@H](O)[C@H](OC)C2)CC(=O)[C@H](C)/C=C(\C)[C@@H](O)[C@@H](OC)C(=O)[C@H](C)C[C@H](C)/C=C/C=C/C=C/1C [Sirolimus(rapamycin), Sirolimus]",Fraction Metabolized,P450 3A4 [5],>90%
same,Oral Bioavailability,[6],20-10%
"C=CC[C@@H]1/C=C(\C)C[C@H](C)C[C@H](OC)[C@H]2O[C@@](O)(C(=O)C(=O)N3CCCC[C@H]3C(=O)O[C@H](/C(C)=C/[C@@H]3CC[C@@H](O)[C@H](OC)C3)[C@H](C)[C@@H](O)CC1=O)[C@H](C)C[C@@H]2OC [Tacrolimus (FK506), Tacrolimus]",Fraction Metabolized,P450 3A4 [5],>90%
same,Oral Bioavailability,[6],20-15%
C[C@]12CC[C@H]3[C@@H](CCC4=CC(=O)CC[C@@]43C)[C@@H]1CC[C@@H]2O [Testosterone],Fraction Metabolized,P450 3A4 [5],>90%
same,Oral Bioavailability,[6],Poor
Cc1nnc2n1-c1ccc(Cl)cc1C(c1ccccc1Cl)=NC2 [Triazolam],Fraction Metabolized,P450 3A4 [5],>90%
same,Oral Bioavailability,[6],45-70%
CC[C@]1(O)C[C@@H]2CN(CCc3c([nH]c4ccccc34)[C@@](C(=O)OC)(c3cc4c(cc3OC)N(C)[C@H]3[C@@](O)(C(=O)OC)[C@H](OC(C)=O)[C@]5(CC)C=CCN6CC[C@]43[C@@H]65)C2)C1 [Vinblastine],Fraction Metabolized,P450 3A4 [5],>50%
same,Oral Bioavailability,[6],Poor
CC[C@]1(O)C[C@H]2CN(CCc3c([nH]c4ccccc34)[C@@](C(=O)OC)(c3cc4c(cc3OC)N(C=O)[C@H]3[C@@](O)(C(=O)OC)[C@H](OC(C)=O)[C@]5(CC)C=CCN6CC[C@]43[C@@H]65)C2)C1 [Vincristine],Fraction Metabolized,P450 3A4 [5],>50%
same,Oral Bioavailability,[6],Poor
C#C[C@]1(O)C=C[C@H]2[C@@H]3CCC4=CC(=O)CC[C@@H]4[C@H]3CC[C@@]21CC [gestodene],Kinactivation,P450 3A4 [7],0.4 min⁻¹
